Experiments:
HIV protease = target: T1, HIV protease (Human immunodeficiency virus type 1 group M subtype B, UniProt P04585); assay: HIV-specific protease enzyme test (RP-HPLC), compounds of formula (I); assay type: biochemical; conditions: purified HIV protease, synthetic Gag cleavage-site peptide, compounds of general formula (I)
T1 construct: purified HIV protease was incubated with synthetic peptide
Protocol: (§1) The results for the examples listed below were determined by the HIV test system described in the following literature reports [cf. Hansen, J., Billich, S., Schulze, T. Sukrow, S. and Molling, K. (1988), EMBO Journal, Vol. 7, No. 6, pages 1785-1791]: purified HIV protease was incubated with synthetic peptide which imitates a cleavage site in the Gag precursor protein and represents an in vivo cleavage site of the HIV protease. The resulting cleavage products of the synthetic peptide were analysed by means of reverse phase high performance liquid chromatography (RP-HPLC). The IC50 values given relate to the substance concentration which causes a 50% inhibition of protease activity under the abovementioned test conditions.

HIV-I protease = HIV-I protease (Human immunodeficiency virus type 1 group M subtype B, UniProt P04585); conditions: read-out: IC50 (inactivation of HIV-I protease); cited from earlier work
HIV-1 protease = target: T2, HIV-1 protease (Human immunodeficiency virus type 1 group M subtype B, UniProt P04585); assay: HIV-specific protease enzyme test (RP-HPLC), HIV-1; assay type: biochemical
T2 construct: purified HIV protease was incubated with synthetic peptide
Protocol: as §1

HIV-2 protease = target: T3, HIV-2 protease (Human immunodeficiency virus type 2 subtype A, UniProt P04584); assay: HIV-specific protease enzyme test (RP-HPLC), HIV-2; assay type: biochemical; conditions: compounds of general formula (VIa)
T3 construct: purified HIV protease was incubated with synthetic peptide
T3 sequence (P04584 514-612 limits assumed): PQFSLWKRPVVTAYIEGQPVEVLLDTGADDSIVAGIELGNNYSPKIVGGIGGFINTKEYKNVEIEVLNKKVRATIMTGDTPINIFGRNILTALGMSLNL
Protocol: as §1

Molecule	IC50 (HIV protease) [nM]	also measured
CCOP(=O)(OCC)C1CCCN1C[C@H](O)[C@H](CC1CCCCC1)NC(=O)OC(C)(C)C (mixture of isomers) [5 (non-polar), Diethyl 1-{(2S, 3S)-3-[(tert-butoxycarbonyl)-amino]-4-cyclohexyl-2-hydroxy-butyl}-(2R and 2S)-2 (pyrrolidinyl)-phosphonate]	1000	–
CCOP(=O)(OCC)C1CCCN1C[C@H](O)[C@H](CC1CCCCC1)NC(=O)OC(C)(C)C (mixture of isomers) [5 (polar), Diethyl 1-{(2S, 3S)-3-[(tert-butoxycarbonyl)-amino]-4-cyclohexyl-2-hydroxy-butyl}-(2R and 2S)-2 (pyrrolidinyl)-phosphonate]	100	–
O=[N+]([O-])c1ccc(OCC2CO2)cc1 (stereo not drawn) [EPNP, 1,2-epoxy-3-(4-nitrophenoxy)propane]	–	IC50 (HIV-I protease): 450000 nM
CC(C)[C@H](NC(=O)[C@H](Cc1ccccc1)NC(=O)CC(C)(C)C)C(=O)N[C@@H](Cc1ccccc1)C1CO1 (stereo partly drawn) [Example 46]	–	IC50 (HIV-1 protease): 5 nM; IC50 (HIV-2 protease): 10 nM
Diethyl 1-{(3S, 4S)-4-[(2S)-3-(tert-butylsulphonyl)-2-(1-naphthylmethyl)propanoyl]valinylamino]-5-cyclohexyl-3-hydroxy-pentanoyl}-(2R or 2S)-2-(pyrrolidinyl)phosphonate [26 (polar)]	100	–
